The results in this text go back to patent US11352322B2, “Cyclopropyl-amide compounds as dual LSD1/HDAC inhibitors” (Jubilant Epicore LLC, priority 2016, dated 2022).

For series [1], the target named is HDAC6 human recombinant enzyme (Homo sapiens (Human), UniProt Q9UBN7). Kind of series: Histone Deacetylase Assay (BPS Biosciences), HDAC6. The class given is biochemical. An excerpt: Histone Deacetylase Assay (BPS Biosciences)
Histone deacetylase assay was done as per manufacturer's instructions.

The next series concerns MM1S. Kind of series: Anticancer activity: Alamar Blue assay, MM1S. It is filed as cell-based. As to conditions: Homo sapiens, MM1.S, read-out: MM1S EC50.
A short description of series [2]: In vivo PK studies in mice. More on the design: species or system Male Balb/C mice. The conditions noted are these: for C0 / Vd / Cmax / clearance / half-life / bioavailability: male, Balb/C, mouse, plasma; for clearance: read-out: Cl IV. As for the experimental part: In Vivo PK Studies in Mice
All the animal experiments were approved by Institutional Animal Ethical Committee (IAEC/JDC/2015/72). Male Balb/C mice (n=24) were procured from Vivo Biotech, Hyderabad, India. The animals were housed in Jubilant Biosys animal house facility in a temperature (22±2° C.) and humidity (30-70%) controlled room (15 air changes/hour) with a 12:12 h light:dark cycles, had free access to rodent feed (Altromin Spezialfutter GmbH & Co. KG., Im Seelenkamp 20, D-32791, Lage, Germany) and water for one week before using for experimental purpose. Following ˜4 h fast (during the fasting period animals had free access to water) animals were divided into two groups (n=12/group). […] Post-dosing serial blood samples (100 μL, sparse sampling was done and at each time point three mice were used for blood sampling) were collected using Micropipettes (Microcaps®; catalogue number: 1-000-0500) through tail vein into polypropylene tubes containing K2.EDTA solution as an anti-coagulant at 0.25, 0.5, 1, 2, 4, 8, 10 and 24 (for oral study) and 0.12, 0.25, 0.5, 1, 2, 4, 8 and 24 (for intravenous study). Plasma was harvested by centrifuging the blood using Biofuge (Hereaus, Germany) at 1760 g for 5 min and stored frozen at −80±10° C. until analysis. Animals were allowed to access feed 2 h post-dosing.
Plasma concentration-time data of the compound was analyzed by non-compartmental method using Phoenix WinNonlin Version 6.3 (Pharsight Corporation, Mountain View, Calif.).

The next series deals with LSD1 (Homo sapiens (Human), UniProt O60341). Kind of series: TR-FRET Assay for LSD1. As to conditions: read-out: LSD1 IC50.
The nature of series [3]: Metabolic stability in liver microsomes, HLM. The conditions noted are these: 1 μM, NADPH.
Experimental: (§4) The microsomal suspension was prepared by adding liver microsomes to 100 mM potassium phosphate buffer (pH7.4) to give a final protein concentration of 0.5 mg/mL. The stock solution of NCE (10 mM in DMSO) was added to the microsomes to provide a final concentration of 1 μM. […] Samples were vortexed and centrifuged at 5,000 rpm for 10 min to remove proteins. Supernatant were analyzed on LC-MS/MS.
A short description of series [4]: Metabolic stability in liver microsomes, MLM. The conditions noted are these: 1 μM, NADPH.
Experimental: as §4
The next series has as its system HEL-92.1.7. Kind of series: cells. As to conditions: Homo sapiens, HEL 92.1.7, 144 h, read-out: Anticancer profileration EC50 HEL-92.1.7. As for the experimental part: (§1) Anticancer Activity: Alamar Blue Assay
(§2) Cells were seeded at 5000 cells/per well in 96-well tissue culture plate and incubated at 37° C./5% CO2. After 16-24 hours, fresh media was added to the wells. Compounds were then (1% DMSO conc.) added to the cells at 10 concentrations ranging from 10-0.0005 uM prepared in 3-fold serial dilutions. […] Alamar Blue™ reagent was added and incubated for 1-3 hours at 37° C./5% CO2. Plates were read on fluorescence reader at 540 nm excitation, 590 nm emission wave lengths.
(§3) As described above, compounds were tested for anticancer activities in different tumor cell lines and GI50 were determined.

A further series concerns MV-4-11. Kind of series: cells. As to conditions: Homo sapiens, MV4-11, 144 h, read-out: Anticancer profileration EC50 MV-4-11. As for the experimental part:
as §1, §2, §3

In a further series the test system is OCI-AML3. Kind of series: cells. The conditions noted are these: Homo sapiens, OCI-AML-3, 144 h, read-out: Anticancer profileration EC50 OCI-AML3. As for the experimental part: as §1, §2, §3
The next series concerns A375. Description: cells. As to conditions: Homo sapiens, A-375, 144 h, read-out: Anticancer profileration EC50 A375. As for the experimental part:
as §1, §2, §3

For another series, the system named is MDAMB231. Kind of series: cells. The conditions noted are these: Homo sapiens, MDA-MB-231, 144 h, read-out: Anticancer profileration EC50 MDAMB231. How it is done:
as §1, §2, §3

The subject of a further series is CCRF-CEM. Description: cells. As to conditions: Homo sapiens, 144 h, read-out: Anticancer profileration EC50 CCRF-CEM. As for the experimental part:
as §1
Cells were seeded at 5000 cells/per well in 96-well tissue culture plate and incubated at 37° C./5% CO2. After 16-24 hours, fresh media was added to the wells. Compounds were then (1% DMSO conc.) added to the cells at 10 concentrations ranging from 10-0.0005 uM prepared in 3-fold serial dilutions. Cells were incubated for 68-72 h at 37° C./5% CO2. Alamar Blue™ reagent was added and incubated for 1-3 hours at 37° C./5% CO2. Plates were read on fluorescence reader at 540 nm excitation, 590 nm emission wave lengths.
as §3

Where [5] appears, read: IV 2 mg/kg, read-out: t1/2 IV (converted).
Where [6] appears, read: PO 50 mg/kg, read-out: t1/2 PO (converted).

Structures are written as SMILES. Structures can show the parent of a compound that is named as a salt. Where two headings read alike, the source gives them in different places.

HDAC6 human recombinant enzyme, sequence (Q9UBN7 whole entry): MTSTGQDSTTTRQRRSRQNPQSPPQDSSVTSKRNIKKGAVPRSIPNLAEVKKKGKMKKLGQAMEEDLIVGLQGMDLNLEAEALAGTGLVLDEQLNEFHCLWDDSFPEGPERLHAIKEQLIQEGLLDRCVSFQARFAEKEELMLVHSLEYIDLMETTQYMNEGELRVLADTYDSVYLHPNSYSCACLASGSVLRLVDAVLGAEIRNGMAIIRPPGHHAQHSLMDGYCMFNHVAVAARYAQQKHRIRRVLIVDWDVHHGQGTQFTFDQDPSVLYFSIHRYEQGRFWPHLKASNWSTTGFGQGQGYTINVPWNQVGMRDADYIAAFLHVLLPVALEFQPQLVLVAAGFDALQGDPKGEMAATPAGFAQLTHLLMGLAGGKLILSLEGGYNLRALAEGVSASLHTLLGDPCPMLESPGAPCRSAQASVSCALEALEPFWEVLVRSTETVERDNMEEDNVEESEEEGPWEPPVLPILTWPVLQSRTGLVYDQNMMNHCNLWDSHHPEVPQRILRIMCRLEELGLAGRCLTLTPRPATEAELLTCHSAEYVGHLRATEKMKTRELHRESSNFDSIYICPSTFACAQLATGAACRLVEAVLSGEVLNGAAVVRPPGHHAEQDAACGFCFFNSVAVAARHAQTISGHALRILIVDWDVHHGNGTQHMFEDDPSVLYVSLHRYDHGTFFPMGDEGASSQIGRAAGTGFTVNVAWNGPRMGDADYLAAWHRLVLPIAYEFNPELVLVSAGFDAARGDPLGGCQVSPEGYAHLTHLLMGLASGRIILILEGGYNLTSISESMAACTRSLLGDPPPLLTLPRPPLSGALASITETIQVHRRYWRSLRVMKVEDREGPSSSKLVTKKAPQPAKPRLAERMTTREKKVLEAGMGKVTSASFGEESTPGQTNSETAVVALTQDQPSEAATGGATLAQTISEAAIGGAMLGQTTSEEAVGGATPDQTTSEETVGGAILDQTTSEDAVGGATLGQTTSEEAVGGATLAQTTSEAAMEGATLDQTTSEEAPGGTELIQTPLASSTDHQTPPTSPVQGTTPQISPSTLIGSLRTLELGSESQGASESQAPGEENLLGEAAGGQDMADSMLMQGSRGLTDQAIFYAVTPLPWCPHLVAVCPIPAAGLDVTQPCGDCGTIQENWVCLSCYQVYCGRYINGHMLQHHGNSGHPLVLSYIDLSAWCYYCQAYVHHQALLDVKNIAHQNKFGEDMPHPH
Experimental for LSD1: TR-FRET Assay for LSD1 (Perkin Elmer)
Tranylcypromine (TCP), LSD1 inhibitor was procured from Selleckchem. […] Stop Solution containing 300 μM tranylcypromine in 1× LANCE Detection Buffer was added to the wells and incubated for 5 min at RT. Then, Detection mix containing 2 nM Eu-Ab and 50 nM ULight-Streptavidin in 1× LANCE Detection Buffer was prepared and added to the reaction mix. This mixture was incubated for 1 hour at room temperature.

On to `O=C(NO)c1ccc(/C=C/C(=O)N2CCC(CN[C@@H]3C[C@H]3c3ccc(F)cc3)CC2)cc1` [Example 115A, 4-((E)-3-(4-((((1R,2S)-2-(4-fluorophenyl)cyclopropyl)amino)methyl)piperidin-1-yl)-3-oxoprop-1-en-1-yl)-N-hydroxybenzamide TFA Salt], for which the IC50 worked out at 50 nM in series [1] and 225 nM on LSD1. In addition, in the series with MM1S (MM1S cells), the EC50 was 77 nM. The “AUC IV” value in series [2] (IV 2 mg/kg) came out at 301 ng/mL/h. Further, in series [2] (PO 10 mg/kg), the “AUC PO” value was determined as 638 ng/mL/h. Besides, the C0 in [2] (IV 2 mg/kg) worked out at 452 ng/mL. In series [2] (IV 2 mg/kg), the Vd is 8 L/kg. Moreover, the Cmax in series [2] (IV 2 mg/kg, read-out: CMax IV) was determined as 452 ng/mL; in series [2] (PO 10 mg/kg, read-out: CMax PO) it was 354 ng/mL. Also, the clearance in series [2] (IV 2 mg/kg) was found to be 108 mL/min/kg. The half-life in series [2] (setting [5]) is 0.87 h; in series [2] (PO 10 mg/kg, read-out: t1/2 PO (converted)), 2.78 h. The bioavailability in series [2] (dose IV/PO 2/10 mg/kg) was 43%. Besides, in series [3], the “Metabolic stability HLM % remaining in 30 min” value was determined as 59%. Besides, the “Metabolic stability MLM % remaining in 30 min” value in [4] was 90%.
For the molecule `O=C(NO)c1ccc(CCCN2CCn3cc(CNC4CC4c4ccc(F)cc4)nc3C2)cc1` (stereo not shown) [Example 72, 4-(3-(2-(((2-(4-fluorophenyl)cyclopropyl)amino)methyl)-5,6-dihydroimidazo[1,2-a]pyrazin-7(8H)-yl)propyl)-N-hydroxybenzamide TFA Salt], the IC50 worked out at 18 nM in series [1] and 730 nM at LSD1. The EC50 in the series on MM1S stood at 343 nM; with HEL-92.1.7, 4800 nM; in the series with MV-4-11, 978 nM; with OCI-AML3 it was 573 nM. The “Metabolic stability HLM % remaining in 30 min” value in [3] stood at 67%. In addition, in [4], the “Metabolic stability MLM % remaining in 30 min” value is less than 5%.
Consider `O=C(NO)c1ccc(CCCN2CCC(CNC3CC3c3ccccc3)CC2)cc1` (stereo not shown) [Example 43, N-hydroxy-4-(3-(4-(((2-phenylcyclopropyl)amino)methyl)piperidin-1-yl)propyl)benzamide TFA Salt], for which the EC50 in the series with A375 was found to be 1030 nM; in the series with HEL-92.1.7, 1 nM; in the series with MDAMB231 it was 747 nM; in the series on MV-4-11, 2 nM; in the series on OCI-AML3 it was 115 nM; in the series with CCRF-CEM, 493 nM. Besides, the “Metabolic stability HLM % remaining in 30 min” value in [3] was 40%. Also, in series [4], the “Metabolic stability MLM % remaining in 30 min” value was determined as 56%.
For the molecule `O=C(NO)c1ccc(CCCN2CCC(CNC3CC3c3ccc(-c4ccc(Cl)cc4)cc3)CC2)cc1` (stereo not shown) [Example 56, 4-(3-(4-(((2-(4′-chloro-[1,1′-biphenyl]-4-yl)cyclopropyl)amino)methyl)piperidin-1-yl)propyl)-N-hydroxybenzamide TFA Salt], the figures for the IC50 (in [1]; at LSD1) were 19 nM and 2 nM, respectively. Further, the EC50 in the series on HEL-92.1.7 came to 10 nM; in the series with MV-4-11, 7 nM; with OCI-AML3, 10 nM. Moreover, in series [3], the “Metabolic stability HLM % remaining in 30 min” value is listed as 87%. In addition, the “Metabolic stability MLM % remaining in 30 min” value in series [4] is 75%.
`COc1ccc(C2CC2NCc2cn3c(n2)CN(CCCc2ccc(C(=O)NO)cc2)CC3)cc1` (stereo not shown) [Example 71, N-hydroxy-4-(3-(2-(((2-(4-methoxyphenyl)cyclopropyl)amino)methyl)-5,6-dihydroimidazo[1,2-a]pyrazin-7(8H)-yl)propyl)benzamide TFA Salt]: the IC50 in series [1] worked out at 28 nM; at LSD1, 1100 nM. The EC50 with HEL-92.1.7 was determined as 6050 nM; in the series on MV-4-11 it was 990 nM; in the series with OCI-AML3, 732 nM. Also, the “Metabolic stability HLM % remaining in 30 min” value in series [3] stood at 73%. In addition, in series [4], the “Metabolic stability MLM % remaining in 30 min” value is less than 5%.
With `Cn1cc(-c2ccc(C3CC3NCC3CCN(Cc4ccc(C(=O)Nc5ccccc5N)cc4)CC3)cc2)cn1` (stereo not shown) [Example 142, N-(2-aminophenyl)-4-((4-(((2-(4-(1-methyl-1H-pyrazol-4-yl)phenyl)cyclopropyl)amino)methyl)piperidin-1-yl)methyl)benzamide TFA Salt], the IC50 in series [1] was more than 10000 nM. In addition, the EC50 in the series with MM1S (MM1S cells) amounted to 120 nM. For the same molecule, in series [2] (IV 2 mg/kg), the “AUC IV” value came to 357 ng/mL/h, the C0 was found to be 198 ng/mL, the Vd was 25 L/kg and the clearance was 88 mL/min/kg. Moreover, in [2] (PO 50 mg/kg), the “AUC PO” value turned out to be 3217 ng/mL/h. Also, in [2] (IV 2 mg/kg, read-out: CMax IV), the Cmax worked out at 150 ng/mL. The half-life in series [2] (setting [5]) was 12.6 h. Further, in [2] (PO 50 mg/kg, read-out: CMax PO), the maximum concentration (Cmax) amounted to 555 ng/mL. The half-life in series [2] (setting [6]) was 6.7 h. Further, the bioavailability in series [2] (dose IV/PO 2/50 mg/kg) worked out at 36%. For the same molecule, the IC50 on LSD1 is 12 nM. In addition, in [3], the “Metabolic stability HLM % remaining in 30 min” value amounted to 72%. For the same molecule, in series [4], the “Metabolic stability MLM % remaining in 30 min” value stood at 52%.
Consider `COc1ccc(C2CC2NCC2CCN(CCCc3ccc(C(=O)NO)cc3)CC2)cc1` (stereo not shown) [Example 51, N-hydroxy-4-(3-(4-(((2-(4-methoxyphenyl)cyclopropyl)amino)methyl)piperidin-1-yl)propyl)benzamide TFA Salt], for which the IC50 in series [1] was found to be 38 nM; on LSD1, 6 nM. For the same molecule, the EC50 in the series on HEL-92.1.7 was found to be 3 nM; in the series with MV-4-11, 31 nM; with OCI-AML3, 14 nM. In addition, the “Metabolic stability HLM % remaining in 30 min” value in series [3] amounted to 74%. Besides, the “Metabolic stability MLM % remaining in 30 min” value in [4] is 91%.
For the molecule `O=C(NO)c1ccc(CCCN2CCC(CNC3CC3c3ccc(-c4cncnc4)cc3)CC2)cc1` (stereo not shown) [Example 61, N-hydroxy-4-(3-(4-(((2-(4-(pyrimidin-5-yl)phenyl)cyclopropyl)amino)methyl)piperidin-1-yl)propyl)benzamide TFA Salt], the IC50 in series [1] was found to be 121 nM; at LSD1, 12 nM. Further, the EC50 in the series on MM1S (MM1S cells) turned out to be 49 nM. Also, the “AUC IV” value in series [2] (IV 10 mg/kg) was found to be 1287 ng/mL/h. In series [2] (PO 50 mg/kg), the “AUC PO” value is 1920 ng/mL/h. The C0 in [2] (IV 10 mg/kg) was found to be 5340 ng/mL. Further, the Vd in [2] (IV 10 mg/kg) stood at 30 L/kg. The Cmax in series [2] (IV 10 mg/kg, read-out: CMax IV) was found to be 2760 ng/mL; in series [2] (PO 50 mg/kg, read-out: CMax PO) it was 771 ng/mL. The clearance in series [2] (IV 10 mg/kg) is 125 mL/min/kg. Also, the half-life in series [2] (IV 10 mg/kg, read-out: t1/2 IV (converted)) is 2.8 h; in [2] (setting [6]), 1.48 h. In series [2] (dose IV/PO 10/50 mg/kg), this molecule came in with a bioavailability of 30%. Further, in [3], the “Metabolic stability HLM % remaining in 30 min” value is 77%. The “Metabolic stability MLM % remaining in 30 min” value in series [4] was found to be 66%.
